Read-outs that look alike come from different tables or passages of the source.
How the values were obtained:
Format in all cases: physicochemical
[1] = Phase solubility of latanoprost in the presence of SBE-β-CD (CAPTISOL); conditions: for pH: filtered supernatant
Experimental: SAE-CD increases the aqueous solubility of latanoprost. The phase solubility curve (FIG. 1) for latanoprost in the presence of SBE-β-CD (CAPTISOL®) was obtained according to Example 5. The intrinsic solubility of latanoprost in water, and in the absence of any solubilizing agent, is about 40 μg/mL. The invention provides a method of increasing the solubility of latanoprost in an aqueous composition, the method comprising including SAE-CD and latanoprost in the aqueous composition, wherein the molar ratio of SAE-CD to latanoprost, pH, concentration of SAE-CD, and concentration of latanoprost are as defined herein. In some embodiments, the SAE-CD increases the aqueous solubility of latanoprost by at least 10-fold.
Aqueous compositions containing latanoprost and different amounts of SBE-β-CD were prepared. Latanoprost (1 mg was measured into aluminum weighing boats (size 4×12×4 mm) by using a microbalance. The boats were put into the amber glass vials (Kimble vial, 1 dram) with Teflon-lined screw caps. Using a Rainin pipetman, 2.0 mL of SBE-β-CD test solution (0, 5, 10, or 20% w/v) were added to each vial. Each vial was capped, vortexed, placed on a rocker platform and gently mixed at room temperature. After 24 hours, the test vials were removed from the rocker platform, the solutions were centrifuged at 2500 rpm for 5 min, and the supernatants were filtered through 0.22 micron Millipore PVDF Millex-GV filters and the pH measured. The latanoprost in the aliquots was assayed by HPLC.

[2] = Photolytic (UV-B) stability of aqueous compositions of latanoprost; conditions: SAE-CD 1% or 5% w/v, pH 6.7, UV-B, compared to a solution excluding SAE-CD
Experimental: Latanoprost was measured in weighing boats (size 4×12×4 mm) by using a microbalance. The boats were put into 50 mL volumetric flask and 100 mM isotonic phosphate buffer (pH 6.7) was added to the flask. The flask was shaken, sonicated and vortexed over an hour. The solution was filtered through a PVDF filter with 20 mL of plastic syringe. SBE-β-CD 0, 1, 5% w/v and BAK 0.02% w/v were measured into each 10 mL volumetric flask and the filtered latanoprost solution were added to them. The flasks were shaken for a few minutes at R.T, and then these solutions and XALATAN® were put into quartz vessels. The Rayonet photochemical chamber reactor was used for the irradiation with RMR-3000A lamp. At various time points, the latanoprost in the aliquots was assayed by HPLC, and the solution pH's were measured before and after the light irradiation.

[3] = Hydrolytic stability of aqueous compositions of latanoprost at 60° C.; conditions: compared to a solution excluding SAE-CD
Experimental: Latanoprost was measured in weighting boats (size 4×12×4 mm) by using a microbalance. The boats were put into 50 mL volumetric flask and 10 mM or 100 mM isotonic phosphate buffer (pH 5.5, 6.7 and 8.0) was added to the flask. The flask was shaken, sonicated and vortexed over an hour. The solution was filtered through a PVDF filter with 20 mL of plastic syringe. SBE-β-CyD 0, 1, 2.5, 5% w/v or BAK 0.02% were measured into 6-dram amber vials, and the filtered latanoprost solution (12 mL) was added to each vials. The vials were shaken for a few minutes at R.T, and then there were kept at 60° C. At various time points, the latanoprost in the aliquots was assayed by HPLC and the solution pH's were measured.

- solubility at 24 h ([1]; aqueous 5% w/v SBE-β-CD (CAPTISOL) solution, pH 7.41, aqueous with cosolvent or surfactant or cyclodextrin, thermodynamic from solid, with 5% w/v CAPTISOL, room temperature, 24 hours, read-out: Latanoprost (solubility)): > 500 µg/mL
- solubility at 24 h ([1]; aqueous 10% w/v SBE-β-CD (CAPTISOL) solution, pH 6.93, aqueous with cosolvent or surfactant or cyclodextrin, thermodynamic from solid, with 10% w/v CAPTISOL, room temperature, 24 hours, read-out: Latanoprost (solubility)): > 500 µg/mL
- solubility at 24 h ([1]; aqueous test solution without SBE-β-CD (0% w/v), pH 8.57, water, thermodynamic from solid, without CAPTISOL, room temperature, 24 hours, read-out: Latanoprost (solubility)): 40 µg/mL
- pH ([1]; with 5% w/v CAPTISOL): 7.41
- pH ([1]; with 10% w/v CAPTISOL): 6.93
- pH ([1]; without CAPTISOL): 8.57
- solubility ([1]; water, thermodynamic from solid, in the absence of any solubilizing agent, read-out: intrinsic solubility of latanoprost in water): ~40 µg/mL
SMILES: CC(C)OC(=O)CCC/C=C\C[C@@H]1[C@@H](CC[C@@H](O)CCc2ccccc2)[C@H](O)C[C@@H]1O [Latanoprost, isopropyl (Z)-7-[(1R,2R,3R,5S)-3,5-dihydroxy-2-[(3R)3-hydroxy-5-phenylpentyl]-cyclopentyl]hept-5-enoate]
- solubility at 24 h ([1]; aqueous SBE-β-CD (SAE-CD, CAPTISOL) solution, aqueous with cosolvent or surfactant or cyclodextrin, thermodynamic from solid, solutions containing at least 5% w/v of SAE-CD, read-out: solubility of latanoprost): > 500 µg/mL
- photolytic degradation of latanoprost [2]: sufficient to suppress photolytic degradation
- hydrolytic degradation of latanoprost ([3]; SAE-CD 1% or 5% w/v, pH 5.5 and 6.7, 60° C.): sufficient to suppress hydrolytic degradation
- hydrolytic degradation of latanoprost ([3]; SAE-CD, pH 8, 60° C.): substantially reduce hydrolytic degradation

Source: US11433082B2, “Composition containing sulfoalkyl ether cyclodextrin and latanoprost” (CyDex Pharmaceuticals, Inc., priority 2008, dated 2022)
